# Reference: US5681838A, “Substituted amino compounds, their preparation and their use as inhibitors of thrombocyte-aggregation” (Hoechst Aktiengesellschaft, priority 1993, dated 1997)
# Like-named read-outs stand apart in the source and are kept apart here.
# Legend:
# [1] = test system: gel-filtered human blood platelets; assay: inhibition of aggregation of gel-filtered human blood platelets following stimulation with ADP or thrombin; assay type: cell-based; settings: Platelet
# Procedure: (§1) The compounds are tested, in particular, for their ability to inhibit blood-platelet aggregation and the adherence of fibrinogen to blood platelets (gel-filtered blood platelets from human donor blood are used which are activated with ADP or thrombin), as well as for their in-vivo ability to inhibit blood-platelet aggregation and thrombosis.
# As a functional test, the ability is measured of the compounds according to the invention to inhibit the aggregation of gel-filtered human blood platelets following stimulation with ADP or thrombin. The value given is the IC50 value of the inhibition. (Literature: G. A. Marguerie et al., J. Biol. Chem. 254 (1979), 5357-5363).
# [2] = target: T1, fibrinogen receptor (glycoprotein IIb/IIIa) (Homo sapiens, UniProt P05106+P08514); assay: inhibition of binding of 125I-fibrinogen to its receptor on intact, gel-filtered human blood platelets; settings: following stimulation with ADP (10 μM); read-out: Ki, ADP-stimulated (inhibition of the binding of 125I-fibrinogen)
# T1 construct: on intact, gel-filtered human blood platelets; from tissue; host or cells: gel-filtered blood platelets from human donor blood
# T1 sequence (P08514 32-887 limits assumed): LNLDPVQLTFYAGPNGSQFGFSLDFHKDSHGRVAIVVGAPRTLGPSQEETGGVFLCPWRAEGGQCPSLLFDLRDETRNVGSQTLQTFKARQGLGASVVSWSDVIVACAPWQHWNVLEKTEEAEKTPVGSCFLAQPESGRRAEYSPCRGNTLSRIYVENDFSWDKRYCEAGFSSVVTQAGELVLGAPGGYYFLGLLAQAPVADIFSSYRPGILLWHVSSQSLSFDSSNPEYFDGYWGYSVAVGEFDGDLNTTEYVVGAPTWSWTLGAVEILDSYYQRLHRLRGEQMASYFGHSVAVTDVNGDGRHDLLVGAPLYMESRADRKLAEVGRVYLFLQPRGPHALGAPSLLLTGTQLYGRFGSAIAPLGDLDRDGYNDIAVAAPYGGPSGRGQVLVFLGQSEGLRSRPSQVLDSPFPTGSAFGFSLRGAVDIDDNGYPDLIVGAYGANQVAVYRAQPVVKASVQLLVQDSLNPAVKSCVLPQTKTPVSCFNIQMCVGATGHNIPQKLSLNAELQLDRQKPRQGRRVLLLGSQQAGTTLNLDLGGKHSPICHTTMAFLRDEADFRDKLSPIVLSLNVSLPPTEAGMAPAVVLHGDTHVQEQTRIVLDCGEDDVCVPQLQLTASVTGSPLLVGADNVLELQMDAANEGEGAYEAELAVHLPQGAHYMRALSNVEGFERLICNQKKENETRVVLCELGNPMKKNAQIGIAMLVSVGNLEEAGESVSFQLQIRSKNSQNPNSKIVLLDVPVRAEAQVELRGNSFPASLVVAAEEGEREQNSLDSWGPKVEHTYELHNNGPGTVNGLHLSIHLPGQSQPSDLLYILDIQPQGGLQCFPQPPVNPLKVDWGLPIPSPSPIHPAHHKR
# T1 sequence (P08514 891-1039 limits assumed): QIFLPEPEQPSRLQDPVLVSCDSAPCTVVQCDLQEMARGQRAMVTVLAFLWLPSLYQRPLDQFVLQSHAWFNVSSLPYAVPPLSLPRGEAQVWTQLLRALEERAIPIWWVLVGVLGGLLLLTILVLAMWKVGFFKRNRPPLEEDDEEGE
# T1 sequence (P05106 27-788): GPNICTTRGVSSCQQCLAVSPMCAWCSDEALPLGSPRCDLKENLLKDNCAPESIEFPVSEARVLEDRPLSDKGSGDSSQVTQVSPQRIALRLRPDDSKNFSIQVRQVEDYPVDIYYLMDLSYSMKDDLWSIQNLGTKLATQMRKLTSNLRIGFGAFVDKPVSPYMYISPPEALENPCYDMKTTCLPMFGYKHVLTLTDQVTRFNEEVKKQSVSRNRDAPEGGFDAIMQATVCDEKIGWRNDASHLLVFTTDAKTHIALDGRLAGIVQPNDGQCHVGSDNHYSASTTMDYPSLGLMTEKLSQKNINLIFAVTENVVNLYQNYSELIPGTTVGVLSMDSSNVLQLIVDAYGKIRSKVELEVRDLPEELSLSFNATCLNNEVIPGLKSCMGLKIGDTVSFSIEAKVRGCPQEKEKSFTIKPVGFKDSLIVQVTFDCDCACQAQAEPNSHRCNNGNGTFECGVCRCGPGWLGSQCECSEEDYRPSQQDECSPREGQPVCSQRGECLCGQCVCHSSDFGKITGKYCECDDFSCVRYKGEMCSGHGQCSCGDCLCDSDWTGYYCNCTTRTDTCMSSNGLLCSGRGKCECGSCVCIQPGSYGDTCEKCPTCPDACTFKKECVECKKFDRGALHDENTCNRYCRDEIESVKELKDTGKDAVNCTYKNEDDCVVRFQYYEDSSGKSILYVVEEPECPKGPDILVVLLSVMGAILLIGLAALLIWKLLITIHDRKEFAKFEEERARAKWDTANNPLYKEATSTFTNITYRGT
# Procedure: as §1
# The test is of the ability of the compounds according to the invention to inhibit the binding of fibrinogen to its receptor (glycoprotein IIb/IIIa) on intact, gel-filtered human blood platelets. The value given is the Ki value for inhibition of the binding of ^125 I-fibrinogen following stimulation with ADP (10 μM). (Literature: J. S. Bennett and G. Vilaire, J. Clin. Invest. 64 (1979), 1393-1401; E. Kornecki et al., J. Biol. Chem. 256 (1981), 5695-5701; G. A. Marguerie et al., J. Biol. Chem. 254 (1979), 5357-5363; G. A. Marguerie et al., J. Biol. Chem. 255 (1980), 154-161).
# [3] = read-out: ADP-stimulated IC50 (inhibition of platelet aggregation)
# [4] = read-out: Thrombin-stimulated IC50 (inhibition of platelet aggregation)
"IC50 [1, 3] [µM]","IC50 [1, 4] [µM]",Ki [2] [µM],Structure (SMILES)
1.5,1,0.42,"N=C(N)c1ccc(C=CC(=O)NCCCN(CC(=O)O)C(=O)NC(C(=O)O)c2ccccc2)cc1 (centres unmarked) [Example 1, (1-(3-(3-(4-(Aminoiminomethyl)phenyl)acryloylamino)propyl)-3-(hydroxycarbonylphenylmethyl)ureido)acetic acid acetate]"
20,20,,"N=C(N)c1ccc(CC2NC(=O)N(CCN(CC(=O)O)C(=O)OCC3c4ccccc4-c4ccccc43)C2=O)cc1 (centres unmarked) [Example 2, (2-(4-(4-(Aminoiminomethyl)benzyl)-2,5-dioxoimidazolidin-1-yl)ethyl)-(9-fluorenylmethoxycarbonyl)aminoacetic acid]"
